In patent US20100285959A1, “HERBICIDAL MIXTURES” (priority 2006, published 2010):

How the values were obtained:
[1] = test system: common ragweed (AMBEL); assay: Test 26 field trial, postemergence; assay type: in vivo, Ambrosia artemisiifolia; parameters: scale not given here
Description: (§1) Corn seeds (hybrid ‘Pioneer 31G96’) were planted in mid spring season, 3.8 cm deep in a silt loam soil having 2% organic matter and a pH of 6.6. Plots were 6.1 m long by 3.0 m wide with rows spaced 76 cm apart. Seeds were spaced 15 cm apart within the rows. The field was managed using conventional tillage practices. […] All treatments also included a surfactant. […] Some of the weed species could not be evaluated at every timing. […] Results are the means of the three replicates.

[2] = test system: velvetleaf (ABUTH); assay: Test 26 field trial, postemergence; assay type: in vivo, Abutilon theophrasti
Description: as §1

[3] = test system: wild oat (AVEFA); assay: Test 4 field trial, postemergence; assay type: in vivo, Avena fatua; parameters: scale not given here
Protocol: A field trial was conducted to evaluate the effects of mixtures of Compound 2 with commercial herbicides on spring wheat (TRZAS, Triticum aestivum L.) and several weed species. Wheat seeds (cv. ‘AC Intrepid’) were planted in late spring season, 3.8 cm deep in a loam soil having 2.7% organic matter and a pH of 7. Plots were 6 m long by 2.5 m wide. The field was managed using no-till practices. The plots were arranged in a randomized complete block design with each treatment being replicated four times. Treatments were applied postemergence 25 days after planting using a backpack sprayer delivering a spray volume of 55 L/ha using a pressure of 276 kPa. […] Compound 2 and clodinafop treatments, alone and in combination, also included a surfactant. Weed species present in the experimental plots in sufficient quantity to be evaluated included wild oat (AVEFA, Avena fatua L.), common lambsquarters (CHEAL, Chenopodium album L.), kochia (KCHSC, Kochia scoparia (L.) Schrad.), wild buckwheat (POLCO, Polygonum convolvulus L.), Russian thistle (SASKR, Salsola kali L. ssp. ruthenica (Iljin) Soo), and field pennycress (THLAR, Thlaspi arvense L.). […] Common lambsquarters was evaluated only at 14 days after application. […] Results are the means of the four replicates.

[4] = test system: giant ragweed (AMBTR); assay: Test 26 field trial, postemergence; assay type: in vivo, Ambrosia trifida
Description: as §1

[5] = test system: wild mustard (SINAR); assay: Test 24 growth chamber, postemergence; assay type: in vivo, Sinapis arvensis; settings: 17 DAA
Protocol: Plants were treated postemergence at the 2-4 leaf growth stage, and each treatment was replicated three times. […] Plants were watered as needed. […] Results for barley and wheat are the means across varieties of the three replicates, and results for the weeds are the means of the three replicates.

[6] = test system: sorghum (SORVU); assay: Test 28 greenhouse, postemergence; assay type: in vivo, Sorghum vulgare; settings: 26 DAA
Protocol: A greenhouse test was conducted to evaluate the effects on the plant species corn (ZEAMD, Zea mays ssp. indentata), sorghum (SORVU, Sorghum vulgare L.), dry-seeded rice (ORYSA, Oryza sativa L.), wheat (TRZAW, Triticum aestivum L.), ivyleaf morningglory (IPOHE, Ipomoea hederacea (L.) JACQ.), and barnyardgrass (ECHCG, Echinochloa crus-galli (L.) P. BEAUV.), of mixtures of Compound 2 with isoxadifen-ethyl. Corn, sorghum, rice, wheat, ivyleaf morningglory and barnyardgrass seeds were planted in RediEarth, a commercial potting medium. […] Corn plants were treated postemergence at the V2 growth stage, and sorghum, rice, wheat, ivyleaf morningglory, and barnyardgrass plants were treated postemergence at the 3-leaf stage. […] Each treatment was replicated three times. […] Plants were watered as needed.

[7] = test system: ducksalad (HETLI); assay: Test 32 greenhouse, simulated flooded rice culture; assay type: in vivo, Heteranthera limosa; parameters: scale not given here; settings: postemergence to flood, 21 DAA
Protocol: A greenhouse trial was conducted to evaluate the effects of Compound 1 and isoxadifen-ethyl at different ratios in simulated flooded rice culture. Plastic pots (11-cm diameter) were partially filled with non-sterilized Tama silt loam soil containing a 15:57:28 ratio of sand, silt and clay and 2.9% organic matter. Seeds of Heteranthera limosa (ducksalad; HETLI), Cyperus difformis (smallflower umbrella sedge; CYPDI), one stand of Echinochloa crus-galli (barnyardgrass; ECHCG), and one stand of four rice seedlings (Oryza sativa cv. ‘M202’; ORYSA) were planted into a single 11-cm diameter pot for each rate and mixture of rates. To obtain this planting, C. difformis and H. limosa seeds were planted separately on the surface soil layer at particular locations within each pot. Water levels were brought to a puddled condition above the soil surface directly after planting. E. crus-galli and rice seeds were planted in cavity trays in the silt loam soil and transplanted at the 1.5 and 2.0 leaf stage, respectively. E. crus-galli and rice plants were transplanted to about 2-cm depth by transferring plugs from the cavity trays. Plantings were sequential so that these plant species all reached the 2.0- to 2.5-leaf stage in the 11-cm diameter pot at time of treatment. Plantings were established and maintained in a greenhouse with day and night temperatures of about 29.5 and 26.7° C. respectively; supplemental balanced lighting was provided to maintain a 16-hour photoperiod. Pots were fertilized periodically with a 200 ppm solution of commercial Scotts Peters® Professional® General Purpose 20-20-20 Water Soluble Fertilizer, amended to 10 ppm with a commercial iron-chelate micronutrient fertilizer. The solution was supplied at time of watering via a liquid fertilizer injector.
At treatment time, test pots were flooded to 3 cm above the soil surface and maintained at that water depth for the duration of the test. Chemical treatments were formulated in acetone and applied directly to the paddy water (i.e., postemergence to flood). Make-up volumes of acetone were added to ensure that all pots were treated with a consistent volume. Test pots were maintained in the greenhouse. A randomized complete block design was employed. Five replicates of each treatment, alone and in mixture, were used. Each species was visually evaluated for treatment effects by comparing those treated to untreated controls and rated for plant response after 21 days.

## COC(=O)c1nc(C2CC2)nc(N)c1Cl [Compound 2, methyl 6-amino-5-chloro-2-cyclopropyl-4-pyrimidinecarboxylate]
[1]; 14 DAA, 30 g a.i./ha
  AMBEL Obs: 94
[1]; 14 DAA, 45 g a.i./ha
  AMBEL Obs: 67
[1]; 14 DAA, 60 g a.i./ha
  AMBEL Obs: 98
[1]; 28 DAA, 30 g a.i./ha
  AMBEL Obs: 88
[1]; 28 DAA, 45 g a.i./ha
  AMBEL Obs: 95
[1]; 28 DAA, 60 g a.i./ha
  AMBEL Obs: 98
[1]; 56 DAA, 30 g a.i./ha
  AMBEL Obs: 73
[1]; 56 DAA, 45 g a.i./ha
  AMBEL Obs: 95
[1]; 56 DAA, 60 g a.i./ha
  AMBEL Obs: 95
[2]; 14 DAA, 30 g a.i./ha
  ABUTH Obs: 86
[2]; 14 DAA, 45 g a.i./ha
  ABUTH Obs: 64
[2]; 14 DAA, 60 g a.i./ha
  ABUTH Obs: 95
[2]; 28 DAA, 30 g a.i./ha
  ABUTH Obs: 80
[2]; 28 DAA, 45 g a.i./ha
  ABUTH Obs: 59
[2]; 28 DAA, 60 g a.i./ha
  ABUTH Obs: 90
[2]; 56 DAA, 30 g a.i./ha
  ABUTH Obs: 40
[2]; 56 DAA, 45 g a.i./ha
  ABUTH Obs: 57
[2]; 56 DAA, 60 g a.i./ha
  ABUTH Obs: 63
[3]; 14 DAA, Cpd 2 30 g a.i./ha alone or with clodinafop 56 or fenoxaprop 90
  AVEFA Obs: 0
[3]; 14 DAA, Cpd 2 60 g a.i./ha alone or with clodinafop 56 or fenoxaprop 90
  AVEFA Obs: 0
[3]; 35 DAA, Cpd 2 30 g a.i./ha alone or with clodinafop 56 or fenoxaprop 90
  AVEFA Obs: 0
[3]; 35 DAA, Cpd 2 60 g a.i./ha alone or with clodinafop 56 or fenoxaprop 90
  AVEFA Obs: 0
[3]; 55 DAA, Cpd 2 30 g a.i./ha alone or with clodinafop 56 or fenoxaprop 90
  AVEFA Obs: 0
[3]; 55 DAA, Cpd 2 60 g a.i./ha alone or with clodinafop 56 or fenoxaprop 90
  AVEFA Obs: 0
[4]; 14 DAA, 30 g a.i./ha
  AMBTR Obs: 97
[4]; 28 DAA, 30 g a.i./ha
  AMBTR Obs: 100
[4]; 28 DAA, 45 g a.i./ha
  AMBTR Obs: 100
[4]; 28 DAA, 60 g a.i./ha
  AMBTR Obs: 100
[5]; Cpd 2 4 g a.i./ha
  SINAR Obs (scale 0 to 100): 62
[5]; Cpd 2 8 g a.i./ha
  SINAR Obs (scale 0 to 100): 65
[5]; Cpd 2 16 g a.i./ha
  SINAR Obs (scale 0 to 100): 72
[6]; Cpd 2 32 g a.i./ha
  SORVU Obs: 73%
[6]; Cpd 2 64 g a.i./ha
  SORVU Obs: 96%

## Nc1nc(C2CC2)nc(C(=O)O)c1Cl [Compound 1, 6-amino-5-chloro-2-cyclopropyl-4-pyrimidinecarboxylic acid]
[7]; Cpd 1 31.25 g a.i./ha
  HETLI Obs: 38
[7]; Cpd 1 62.5 g a.i./ha
  HETLI Obs: 76
[7]; Cpd 1 125 g a.i./ha
  HETLI Obs: 95
